In article PMC6651170, “New HSV-1 Anti-Viral 1′-Homocarbocyclic Nucleoside Analogs with an Optically Active Substituted Bicyclo[2.2.1]Heptane Fragment as a Glycoside Moiety” (Molecules, 2019):
Where two headings read alike, the source gives them in different places.

Key:
[1] = tested on: Influenza virus (Flu A, strain A/Puerto Rico/8/34 (H1N1)); test: microbe, parasite or virus in culture; format: cell-based; details: for IC50: unidentified influenza virus, H1N1, MDCK, 48 h, read-out: IC50 Influenza Virus
[2] = tested on: herpes simplex virus type 1 (HSV-1); test: microbe, parasite or virus in culture; format: cell-based; details: for IC50: Human alphaherpesvirus 1, Vero, 72 h, read-out: IC50 Herpes Simplex Virus Type 1
[3] = tested on: human adenovirus type 5 (AdV5); test: microbe, parasite or virus in culture; format: cell-based; details: Human mastadenovirus C, Vero, 72 h, read-out: IC50 Human Adenovirus Type 5
Yellow Fever Virus = test: microbe, parasite or virus in culture; format: cell-based; details: Yellow fever virus, read-out: IC50 Yellow Fever Virus
Chikungunya Virus = test: microbe, parasite or virus in culture; format: cell-based; details: Chikungunya virus, read-out: IC50 Chikungunya Virus
Enterovirus 71 = test: microbe, parasite or virus in culture; format: cell-based; details: Enterovirus A, read-out: IC50 Enterovirus 71
in vitro [4] = details: dog
in vitro [5] = details: African green monkey
in vitro [6] = test: in vitro
in vitro [7] = test: in vitro; remark: listed apart in the source
in vitro [8] = test: in vitro; remark: listed apart in the source
[9] = CC50 (Herpes Simplex Virus Type 1)

| Compound | IC50 [1] [µM] | IC50 [2] [µM] | IC50 [3] [µM] | IC50 (Yellow Fever Virus) [µM] | IC50 (Chikungunya Virus) [µM] | IC50 (Enterovirus 71) [µM] | CC50 (in vitro [4]) [µM] | CC50 (in vitro [5]; [9]) [µM] | CC50 (in vitro [5]; CC50 (Human Adenovirus Type 5)) [µM] | CC50 (in vitro [6]) [µM] | CC50 (in vitro [7]) [µM] | CC50 (in vitro [8]) [µM] | activity against HSV-1 in words [2] | activity against influenza virus in words [1] |
| --- | --- | --- | --- | --- | --- | --- | --- | --- | --- | --- | --- | --- | --- | --- |
| Cc1cn(C[C@H]2[C@@H]3CC(O)[C@H]2C[C@@H]3Cl)c(=O)[nH]c1=O (stereo partly drawn) [Compound 4c, 1-(((1S,2S,4S,7R)-2-Chloro-5-hydroxybicyclo[2.2.1]heptan-7-yl)methyl)-5-methylpyrimidine-2,4(1H,3H)-dione] | > 1050 | > 1050 | > 1050 | > 100 | > 100 | > 100 | > 1050 | > 1050 | > 1050 | > 100 | > 100 | > 100 | – | – |
| CN1CCN(Nc2ncnc3c2ncn3C[C@H]2[C@@H]3CC(O)[C@H]2C[C@@H]3Cl)CC1 (stereo partly drawn) [Compound 6g, (1S,4S,5S,7R)-5-Chloro-7-((6-((4-methylpiperazin-1-yl)amino)-9H-purin-9-yl)methyl)bicyclo[2.2.1]heptan-2-ol] | > 766 | 540 ± 32 | > 766 | > 100 | > 100 | > 100 | > 766 | > 766 | > 766 | > 100 | > 100 | > 100 | complete loss of virus inhibition | – |
| OC1C[C@H]2[C@H](Cn3cnc4c(NC5CC5)ncnc43)[C@@H]1C[C@@H]2Cl (stereo partly drawn) [Compound 6b, (1S,4S,5S,7R)-5-Chloro-7-((6-(cyclopropylamino)-9H-purin-9-yl)methyl)bicyclo[2.2.1]heptan-2-ol] | 419 ± 51 | 599 ± 64 | > 899 | > 100 | > 100 | > 100 | 752 ± 44 | > 773 | > 899 | > 100 | > 100 | > 100 | – | – |
| CCOc1ncnc2c1ncn2C[C@H]1[C@@H]2CC(O)[C@H]1C[C@@H]2Cl (stereo partly drawn) [Compound 7b, (1S,4S,5S,7R)-5-Chloro-7-((6-ethoxy-9H-purin-9-yl)methyl)bicyclo[2.2.1]heptan-2-ol] | > 929 | 524 ± 63 | > 929 | > 100 | > 100 | > 100 | > 929 | > 929 | > 929 | > 100 | > 100 | > 100 | – | – |
| CN1CCN(c2ncnc3c2ncn3C[C@H]2[C@@H]3CC(O)[C@H]2C[C@@H]3Cl)CC1 (stereo partly drawn) [Compound 6f, (1S,4S,5S,7R)-5-Chloro-7-((6-(4-methylpiperazin-1-yl)-9H-purin-9-yl)methyl)bicyclo[2.2.1]heptan-2-ol] | 241 ± 30 | 28 ± 4 | 105 ± 11 | > 100 | > 100 | > 100 | > 796 | > 719 | > 796 | > 100 | > 100 | > 100 | active against herpes | – |
| Nc1ccn(C[C@H]2[C@@H]3CC(O)[C@H]2C[C@@H]3Cl)c(=O)n1 (stereo partly drawn) [Compound 4d, 4-Amino-1-(((1S,2S,4S,7R)-2-chloro-5-hydroxybicyclo[2.2.1]heptan-7-yl)methyl)pyrimidin-2(1H)-one] | 102 ± 12 | 727 ± 77 | > 1110 | > 100 | > 100 | > 100 | > 1110 | > 1110 | > 1110 | > 100 | > 100 | > 100 | ineffective against HSV-1 | active against influenza virus |
